According to US20230041738A1, “1H-PYRAZOLO[4,3-d]PYRIMIDINE COMPOUNDS AS TOLL-LIKE RECEPTOR 7 (TLR7) AGONISTS” (BRISTOL-MYERS SQUIBB COMPANY, priority 2020, published 2023):

How the values were obtained:
[1] = tested on: CD69; test: Induction of CD69 in human whole blood (hWB); type: cell-based; settings: 17 hrs at 37 C, CD69 surface staining, 100% set to 1 uM resiquimod, average where performed multiple times
Protocol: The induction of Type I interferon (IFN) MX-1 genes and the B-cell activation marker CD69 are downstream events that occur upon activation of the TLR7 pathway. The following is a human whole blood assay that measures their induction in response to a TLR7 agonist.
Heparinized human whole blood was harvested from human subjects and treated with test TLR7 agonist compounds at 1 mM. The blood was diluted with RPMI 1640 media and Echo was used to predot 10 nL per well giving a final concentration of 1 uM (10 nL in 10 uL of blood). After mixing on a shaker for 30 sec, the plates were covered and placed in a 37° C. chamber for o/n=17 hrs. Fixing/lysis buffer was prepared (5×→1× in H2O, warm at 37° C.; Cat #BD 558049) and kept the perm buffer (on ice) for later use.
For surface markers staining (CD69): prepared surface Abs: 0.045 ul hCD14-FITC (ThermoFisher Cat #MHCD1401)+0.6 ul hCD19-ef450 (ThermoFisher Cat #48-0198-42)+1.5 ul hCD69-PE (cat #BD555531)+0.855 ul FACS buffer. Added 3 ul/well, spin1000 rpm for 1 min and mixed on shaker for 30 sec, put on ice for 30 mins. Stop stimulation after 30 min with 70 uL of prewarmed 1× fix/lysis buffer and use Feliex mate to resuspend (15 times, change tips for each plate) and incubate at 37C for 10 min.
Centrifuge at 2000 rpm for 5 min aspirate with HCS plate washer, mix on shaker for 30 sec and then wash with 70 uL in dPBS and pelleted 2× s (2000 rpm for 5 min) and 50 ul wash in FACS buffer pelleted 1×s(2000 rpm for 5 min). Mix on shaker for 30 sec. For Intracellular markers staining (MX-1): Add 50 ul of BD Perm buffer III and mix on shaker for 30 sec. Incubate on ice for 30 min (in the dark). Wash with 50 uL of FACS buffer 2× (spin @2300 rpm×5 min after perm) followed by mixing on shaker for 30 sec. Resuspended in 20 ul of FACS buffer containing MX1 antibody ( )(4812)-Alexa 647: Novus Biologicals #NBP2-43704AF647) 20 ul FACS bf+0.8 ul hlgG+0.04 ul MX-1. Spin 1000 rpm for 1 min, mix on shaker for 30se and the samples were incubated at RT in the dark for 45 min followed by washing 2× FACS buffer (spin @2300 rpm×5 min after perm). Resuspend 20 ul (35 uL total per well) of FACS buffer and cover with foil and place in 4° C. to read the following day. Plates were read on iQuePlus. The results were loaded into toolset and IC50 curves are generated in curve master. The y-axis 100% is set to 1 uM of resiquimod.

[2] = molecular target: T1, human TLR7 (Homo sapiens, UniProt Q9NYK1); test: Human TLR7 agonist activity assay (hTLR7 reporter, HEK-Blue TLR7 cells, SEAP); type: cell-based; settings: HEK-Blue TLR7 cells with SEAP reporter, 18 h treatment; average where assay performed multiple times
T1 construct: host or cells: HEK-Blue TLR7 cells (engineered human embryonic kidney cells)
T1 sequence (Q9NYK1 27-1049): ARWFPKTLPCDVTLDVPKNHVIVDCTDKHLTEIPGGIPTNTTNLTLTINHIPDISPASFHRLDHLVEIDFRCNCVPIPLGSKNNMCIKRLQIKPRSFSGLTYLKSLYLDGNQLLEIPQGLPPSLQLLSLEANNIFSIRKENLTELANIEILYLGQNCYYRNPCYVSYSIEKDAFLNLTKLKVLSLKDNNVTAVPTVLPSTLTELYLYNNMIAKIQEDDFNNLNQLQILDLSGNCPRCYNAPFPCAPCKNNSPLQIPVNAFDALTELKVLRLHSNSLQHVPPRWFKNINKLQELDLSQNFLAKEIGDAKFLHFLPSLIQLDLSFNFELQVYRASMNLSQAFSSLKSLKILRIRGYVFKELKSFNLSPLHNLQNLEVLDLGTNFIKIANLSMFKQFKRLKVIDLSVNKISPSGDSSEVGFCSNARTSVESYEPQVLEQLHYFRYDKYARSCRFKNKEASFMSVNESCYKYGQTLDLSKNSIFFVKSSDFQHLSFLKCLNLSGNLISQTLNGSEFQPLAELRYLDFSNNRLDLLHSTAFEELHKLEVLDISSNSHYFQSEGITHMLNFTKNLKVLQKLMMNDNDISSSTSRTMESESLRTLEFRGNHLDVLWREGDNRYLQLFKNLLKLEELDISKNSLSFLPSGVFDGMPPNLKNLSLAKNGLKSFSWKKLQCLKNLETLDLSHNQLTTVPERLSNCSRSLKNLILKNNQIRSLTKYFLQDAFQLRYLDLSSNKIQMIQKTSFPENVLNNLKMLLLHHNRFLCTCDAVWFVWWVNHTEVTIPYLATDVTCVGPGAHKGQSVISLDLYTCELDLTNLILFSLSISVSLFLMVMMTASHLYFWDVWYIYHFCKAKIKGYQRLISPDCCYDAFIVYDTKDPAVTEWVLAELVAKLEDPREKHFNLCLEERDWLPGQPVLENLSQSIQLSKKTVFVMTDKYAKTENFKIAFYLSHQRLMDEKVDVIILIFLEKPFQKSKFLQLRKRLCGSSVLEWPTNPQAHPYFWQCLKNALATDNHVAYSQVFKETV
Protocol: This procedure describes a method for assaying human TLR7 (hTLR7) agonist activity of the compounds disclosed in this specification.
HEK-Blue™ TLR7 cells were added to each well of a 384-well tissue-culture plate (15,000 cells per well) and incubated 16-18 h at 37° C., 5% CO2. Compounds (100 nl) were dispensed into wells containing the HEK-Blue™ TLR cells and the treated cells were incubated at 37° C., 5% CO2. After 18 h treatment ten microliters of freshly-prepared Quanti-Blue™ reagent (Invivogen) was added to each well, incubated for 30 min (37° C., 5% CO2) and SEAP levels measured using an Envision plate reader (OD=620 nm). The half maximal effective concentration values (EC50; compound concentration which induced a response halfway between the assay baseline and maximum) were calculated.

CCC[C@@H](CCO)Nc1nc(N)nc2cnn(Cc3ccc(C(=O)N4C[C@H]5C[C@@H]4CN5C)cc3OC)c12 [Compound 119, (3S)-3-{[5-amino-1-({2-methoxy-4-[(1R,4R)-5-methyl-2,5-diazabicyclo [2.2.1]heptane-2-carbonyl]phenyl}methyl)-1H-pyrazolo[4,3-d]pyrimidin-7-yl]amino}hexan-1-ol]
EC50 [1]: 0.0181 µM
EC50 [2]: 0.106 µM

CCCCNc1nc(N)nc2c(C)nn(Cc3ccc(C(=O)N4C[C@H]5CN(C)C[C@H]5C4)cc3OC)c12 [Compound 115, 1-({4-[(3aR,6aS)-5-methyl-octahydropyrrolo[3,4-c]pyrrole-2-carbonyl]-2-methoxyphenyl}methyl)-N7-butyl-3-methyl-1H-pyrazolo[4,3-d]pyrimidine-5,7-diamine]
EC50 [1]: 0.0109 µM
EC50 [2]: 0.0798 µM

CCC[C@@H](CCO)Nc1nc(N)nc2cnn(Cc3ccc(CN4C[C@H]5C[C@@H]4CN5C)cc3OC)c12 [Compound 121, (3S)-3-({5-amino-1-[(2-methoxy-4-{[(1R,4R)-5-methyl-2,5-diaza-bicyclo[2.2.1]heptan-2-yl]methyl}-phenyl)methyl]-1H-pyrazolo[4,3-d]pyrimidin-7-yl}amino)hexan-1-ol]
EC50 [1]: 0.0013 µM
EC50 [2]: 0.0221 µM

CCCCNc1nc(N)nc2cnn(Cc3ccc(C(=O)N4C[C@H]5CN(C)C[C@H]5C4)cc3OC)c12 [Compound 111, 1-({4-[(3aR,6aS)-5-methyl-octahydropyrrolo[3,4-c]pyrrole-2-carbonyl]-2-methoxyphenyl}-methyl)-N7-butyl-1H-pyrazolo[4,3-d]pyrimidine-5,7-diamine]
EC50 [1]: 0.0111 µM
EC50 [2]: 0.0164 µM

CCC[C@@H](CCO)Nc1nc(N)nc2cnn(Cc3ccc(C(=O)N4C[C@H]5CNC[C@H]5C4)cc3OC)c12 [Compound 120]
EC50 [1]: 0.138 µM
EC50 [2]: 0.173 µM

CCC[C@@H](CCO)Nc1nc(N)nc2cnn(Cc3cnc(CN4C[C@@H]5C[C@H]4CN5C)cc3OC)c12 [Compound 131, (3S)-3-({5-amino-1-[(4-methoxy-6-{[(1S,4S)-5-methyl-2,5-diaza-bicyclo[2.2.1]heptan-2-yl]methyl}pyridin-3-yl)methyl]-1H-pyrazolo[4,3-d]pyrimidin-7-yl}amino)hexan-1-ol]
EC50 [1]: 0.0117 µM
EC50 [2]: 0.333 µM

CCCCNc1nc(N)nc2cnn(Cc3ccc(CN4C[C@H]5C[C@@H]4CN5C)cc3OC)c12 [Compound 105, N7-butyl-1-[(2-methoxy-4-{[(1R,4R)-5-methyl-2,5-diaza-bicyclo[2.2.1]heptan-2-yl]methyl}-phenyl)methyl]-1H-pyrazolo[4,3-d]pyrimidine-5,7-diamine]
EC50 [1]: 0.0042 µM
EC50 [2]: 0.0207 µM

CCC[C@@H](CCO)Nc1nc(N)nc2cnn(Cc3ncc(CN4C[C@@H]5C[C@H]4CN5CCO)cc3OC)c12 [Compound 135, (3S)-3-({5-amino-1-[(5-{[(1S,4S)-5-(2-hydroxyethyl)-2,5-diaza-bicyclo[2.2.1]heptan-2-yl]methyl}-3-methoxypyridin-2-yl)methyl]-1H-pyrazolo[4,3-d]pyrimidin-7-yl}amino)hexan-1-ol]
EC50 [1]: 0.0122 µM
EC50 [2]: 0.297 µM

CCCCNc1nc(N)nc2cnn(Cc3ccc(C(=O)N4C[C@H]5CN(C)C[C@H]5C4)cc3OC(F)F)c12 [Compound 116, 1-({4-[(3aR,6aS)-5-methyl-octa-hydropyrrolo[3,4-c]pyrrole-2-carbonyl]-2-(difluoromethoxy)phenyl}-methyl)-N7-butyl-1H-pyrazolo[4,3-d]pyrimidine-5,7-diamine]
EC50 [1]: 0.0142 µM
EC50 [2]: 0.172 µM

CCC[C@@H](CCO)Nc1nc(N)nc2c(C)nn(Cc3ccc(CN4C[C@H]5C[C@@H]4CN5CCO)cc3OC)c12 [Compound 141, (3S)-3-({5-amino-1-[(4-{[(1R,4R)-5-(2-hydroxyethyl)-2,5-diazabicyclo [2.2.1]heptan-2-yl]methyl}-2-methoxyphenyl)methyl]-3-methyl-1H-pyrazolo[4,3-d]pyrimidin-7-yl}amino)hexan-1-ol]
EC50 [1]: 0.0106 µM
EC50 [2]: 0.0599 µM

COc1cc(CN2C[C@@H]3C[C@H]2CN3)ccc1Cn1ncc2nc(N)nc(NCc3cc(C)on3)c21 [Compound 106, 1-[(4-{[(1S,4S)-2,5-diazabicyclo-[2.2.1]heptan-2-yl]methyl}-2-methoxyphenyl)methyl]-N7-[(5-methyl-1,2-oxazol-3-yl)methyl]-1H-pyrazolo[4,3-d]pyrimidine-5,7-diamine]
EC50 [1]: 0.0736 µM
EC50 [2]: 0.234 µM

CCC[C@@H](CCO)Nc1nc(N)nc2cnn(Cc3cnc(CN4C[C@@H]5C[C@H]4CN5)cc3OC)c12 [Compound 134, (3S)-3-({5-amino-1-[(6-{[(1S,4S)-2,5-diazabicyclo[2.2.1]heptan-2-yl]methyl}-4-methoxypyridin-3-yl)methyl]-1H-pyrazolo[4,3-d]pyrimidin-7-yl}amino)hexan-1-ol]
EC50 [1]: 0.0224 µM
EC50 [2]: 0.354 µM

CCCCNc1nc(N)nc2cnn(Cc3ccc(CN4C[C@H]5CN(C)C[C@H]5C4)cc3OC(F)F)c12 [Compound 117, 1-[(4-{[(3aR,6aS)-5-methyl-octa-hdropyrrolo[3,4-c]pyrrol-2-yl]methyl}-2-(difluoromethoxy)phenyl)-methyl]-N7-butyl-1H-pyrazolo[4,3-d]pyrimidine-5,7-diamine]
EC50 [1]: 0.0162 µM
EC50 [2]: 0.0924 µM

CCC[C@@H](CCO)Nc1nc(N)nc2cnn(Cc3cnc(CN4C[C@H]5C[C@@H]4CN5CCO)cc3OC)c12 [Compound 140]
EC50 [1]: 0.0316 µM
EC50 [2]: 0.716 µM

CCCCNc1nc(N)nc2cnn(Cc3ccc(CN4C[C@H]5CNC[C@H]5C4)cc3OC)c12 [Compound 136, 1-[(4-{[(3aR,6aS)-octahydro-pyrrolo[3,4-c]pyrrol-2-yl]methyl}-2-methoxyphenyl)methyl]-N7-butyl-1H-pyrazolo[4,3-d]pyrimidine-5,7-diamine]
EC50 [1]: 0.0013 µM
EC50 [2]: 0.0622 µM

COc1cc(CN2C[C@@H]3C[C@H]2CN3)ccc1Cn1ncc2nc(N)nc(NCC3CC(C4CC4)C3)c21 (stereo partly drawn) [Compound 112, N7-[(3-cyclopropylcyclobutyl)-methyl]-1-[(4-{[(1S,4S)-2,5-diazabicyclo[2.2.1]heptan-2-yl]methyl}-2-methoxy-phenyl)methyl]-1H-pyrazolo[4,3-d]pyrimidine-5,7-diamine]
EC50 [1]: 0.151 µM
EC50 [2]: 0.0305 µM
